Test results from patent publication US20230117757A1, “COENZYME Q PRODUCTION ACCELERATOR AND METHOD FOR ACCELERATING COENZYME Q PRODUCTION” (priority 2020, published 2023).

Test system: HEK293 cells (human embryonic kidney cells)
Experiment: coenzyme Q10 production in mitochondria of HEK293 cells cultured with nicotinamide mononucleotide, quantified by LC-MS
Type: cell-based
Conditions: HEK293 cells cultured three days in DMEM medium with 1 mM or 2.5 mM β-nicotinamide mononucleotide daily added; control 0 mM
Protocol: To examine a production promoting effect of coenzyme Q10 caused by nicotinamide mononucleotide, HEK293 cells (human embryonic kidney cells) were cultured for three days (37° C., 5% CO2) in DMEM medium containing β-nicotinamide mononucleotide with a predetermined concentration (0 mM (control), 1 mM, and 2.5 mM daily added). Three days after the first day of culture, mitochondria were isolated from the HEK293 cells, and contained amounts of each of the reduced form (ubiquinol) and the oxidized form (ubiquinone) of coenzyme Q10 in the mitochondria were quantified by LC-MS method (LC column: KINETEX C18 column (Phenomenex), MS: Shimadzu LCMS-8060 (Shimadzu Corporation), eluent: 10 mM ammonium formate in Methanol, flow rate: 0.5 mL/minute, detection: MS/MS analysis by multiple reaction monitoring (MRM) method; Q10H2 883.6→197.15 m/z, Q10 881.4→197.15 m/z, Q9H2 815.6→197.15 m/z, Q9 813.6→197.15 m/z, Q8H2 747.6→197.15 m/z, Q8 745.6→197.15 m/z) (column: ODS, column temperature: 40° C., eluent: 70% acetonitrile/methanol (1:1) and 30% 0.05 M ammonium formate (prepared to be pH 7.2 with 10% ammonia water), flow rate: 1.0 mL/minute, detection: UV276 nm). […]

## NC(=O)c1ccc[n+]([C@@H]2O[C@H](COP(=O)(O)O)[C@@H](O)[C@H]2O)c1 [nicotinamide mononucleotide]
  sum amount of the reduced form and the oxidized form of coenzyme Q10 in the mitochondria, change vs control: approximately doubled
